Experiments:
[1] = test system: Klebsiella pneumonia, Proteus mirabilis, Morganella morganii, P. aeruginosa strains; assay: Tigecycline susceptibility of various bacterial strains in combination with compound 21 (Example 85); type: cell-based; conditions: Example 85, written in present tense
Description: Standard CLSI methods for antimicrobial susceptibility testing, as outlined in National Committee for Clinical Laboratory Standards 2003, Methods for Dilution Antimicrobial Susceptibility Tests for Bacteria That Grow Aerobically—-6th ed., Approved Standard, NCCLS Document M7-A6, Vol 20 No. 2., are used to assess the activity of tigecycline in combination with compound 21. The following strains are tested: • Klebsiella pneumonia: G340, G595, G815, GC7335, GC7736, GC7737, tigecycline resistant mutants derived from G595 and G815 • Proteus mirabilis: G151, GC 7020, GC 6899, GC 6900, GC 7018, GC 7019 • Morganella morganii: G858, G1492, GC7676, GC7677, GC7743, GC7744 • P. aeruginosa: K767, K1523, K1525, XY1, XY3, K153, BXY1, BXY4, K1119, M1, M9, K1455.
Clinical isolates enriched with strains having a decreased susceptibility to tigecycline are also tested.

[2] = test system: P. aeruginosa strain PAM 1032; assay: Mouse model of P. aeruginosa sepsis infection (tigecycline 50% effective dose); type: in vivo
Description: Tigecycline and compound 21 were prepared in sterile 0.9% saline. Seventy Swiss-Webster mice (Harlan laboratories) with body weights ranging from 22 to 25 grams at the start of the study were used. Upon receipt, the animals were housed 5 per cage in a room with a controlled environment and were acclimated to laboratory conditions for at least 24 hours prior to the start of dosing. Animals were provided food and water ad libitum. The health status of the animals was determined during the acclimation period and unhealthy animals were not placed on study. Each animal was identified by marking their tails with indelible ink and each cage was identified by animal, group, and study number.
P. aeruginosa strain PAM 1032 was grown in Mueller-Hinton Broth (MHB) at 35° C. under constant aeration. After 20 hours, the inoculum was sub-cultured into fresh MHB and allowed to regrow at 35° C., under constant aeration, for 4 hours. The inoculum was adjusted to ca. 4×10^7 CFU/ml by correlation of absorbance at 600 nm with predetermined plate counts. The inoculum was then diluted 2-fold in 14% hog-gastric mucin (Sigma, St. Louis, Mo.) for a final inoculum concentration of 2×10^7 CFU/ml. […] At 0 and 2 hours following infection, tigecycline was administered by the subcutaneous route and compound 21 was administered by the intraperitoneal route. […] The susceptibility of the test strain (P. aeruginosa PAM1032, […] MexAB-OprM) to tigecycline was 4 ug/ml, the susceptibility of the test strain to tigecycline in the presence of 2.5 μg/mL of compound 21 was 0.25 μg/mL.

PAM 1020, wt = assay: Tigecycline potentiation checkerboard assay, PAM 1020; type: cell-based, P. aeruginosa; design: Tigecycline MIC in the presence of Compound 21: unit not given here; conditions: PAM 1020
Description: (§1) The ability of compound 21 to increase susceptibility to tigecycline was also assessed. The tigecycline potentiating activity of compound 21 was assessed by the checkerboard assay (Antimicrobial Combinations, Antibiotics in Laboratory Medicine, ed. Victor Lorian, M.D., Fourth edition, 1996, pp 333-338, which is incorporated herein by reference in its entirety) using a broth micro-dilution method performed as recommended by the CSLI (Clinical and Laboratory Standards Institute, formerly NCCLS) guidelines (National Committee for Clinical Laboratory Standards 2003. Methods for Dilution Antimicrobial Susceptibility Tests for Bacteria That Grow Aerobically—Sixth Edition; Approved Standard. NCCLS Document M7-A6, Vol 20 No. 2). In this assay, multiple dilutions of the two drugs, compound 21 and tigecycline, were tested alone and in combination, at concentrations equal to, above and below their respective minimal inhibitory concentrations (MICs). […] The stock solution was further diluted in Mueller Hinton Broth (MHB). Stock solutions were stored at −80° C.
(§2) The checkerboard assay was performed in microtiter plates. Tigecycline was diluted in the x axis, each column containing a single concentration of tigecycline. Compound 21 was diluted in the y axis, each row containing an equal concentration of the EPI. […] The assay was performed in MHB with a final bacterial inoculum of 5×10^5 CFU/ml (from an early-log phase culture). The microtiter plates were incubated for 20 hours at 35° C. and then read using a microtiter plate reader (Molecular Devices) at 650 nm, as well as by visual observation using a microtiter plate-reading mirror.

[3] = test system: laboratory strains of P. aeruginosa; assay: Tigecycline susceptibility of laboratory strains of P. aeruginosa over-expressing or lacking efflux pumps; type: cell-based
Description: as §1, §2

[4] = test system: PAM 1032, nalB, MexAB-OprM over-expressed; assay: microbe, parasite or virus in culture; type: cell-based, P. aeruginosa; design: Tigecycline MIC in the presence of Compound 21: unit not given here; conditions: PAM 1032
Description: as §1, §2
P. aeruginosa strain PAM 1032 was grown in Mueller-Hinton Broth (MHB) at 35° C. under constant aeration. After 20 hours, the inoculum was sub-cultured into fresh MHB and allowed to regrow at 35° C., under constant aeration, for 4 hours. The inoculum was adjusted to ca. 4×10^7 CFU/ml by correlation of absorbance at 600 nm with predetermined plate counts. The inoculum was then diluted 2-fold in 14% hog-gastric mucin (Sigma, St. Louis, Mo.) for a final inoculum concentration of 2×10^7 CFU/ml. […] At 0 and 2 hours following infection, tigecycline was administered by the subcutaneous route and compound 21 was administered by the intraperitoneal route.

[5] = test system: 110 clinical isolates of P. aeruginosa; assay: Tigecycline susceptibility of P. aeruginosa clinical isolates with fixed concentration of compound 21; type: cell-based
Description: To further characterize the clinical potential of tigecycline/EPI combinations, the microbiological activity of tigecycline in combination with compound 21 was investigated using clinical isolates of P. aeruginosa and other gram-negative bacteria. In several experiments, described below, the impact of a fixed concentration of compound 21 (2.5 μg/ml) on susceptibility to tigecycline was determined.
Results from an experiment using 110 clinical isolates of P. aeruginosa are presented in FIG. 1, as the distribution of tigecycline MICs with or without the EPI potentiator.

[6] = tigecycline with compound 21 at fixed […], 110 clinical isolates

## NCCC[C@H](N)C(=O)N[C@H](Cc1ccc(C(F)(F)F)cc1)C(=O)Nc1cnc2ccccc2c1 [Compound 21, 2-(S),5-Diamino-pentanoic acid [1-(R)-(quinolin-3-ylcarbamoyl)-2-(4-trifluoromethyl-phenyl)-ethyl]amide]
[1]
  effect on development of resistance to tigecycline: reduces the development of resistance
  effect on resistance to tigecycline in bacterial strains: decreases resistance to tigecycline
  effect on susceptibility of the strains to tigecycline: increases the susceptibility of the strains to tigecycline
[2]; mice, tigecycline SC, compound 21 IP at 0 and 2 hours
  50% effective dose of tigecycline in combination with compound 21: approximately 75 mg/k
[2]; with compound 21
  improvement of tigecycline 50% effective dose: 2.5 fold
PAM 1020, wt; Compound 21 0.625 μg/ml
  Tigecycline MIC in the presence of Compound 21: 2
PAM 1020, wt; Compound 21 1.25 μg/ml
  Tigecycline MIC in the presence of Compound 21: 1
PAM 1020, wt; Compound 21 5 μg/ml
  Tigecycline MIC in the presence of Compound 21: 0.25
PAM 1020, wt; Compound 21 10 μg/ml
  Tigecycline MIC in the presence of Compound 21: 0.25
PAM 1020, wt; Compound 21 20 μg/ml
  Tigecycline MIC in the presence of Compound 21: 0.25
PAM 1020, wt; Compound 21 40 μg/ml
  Tigecycline MIC in the presence of Compound 21: 0.25
PAM 1020, wt; Compound 21 […]
  Tigecycline MIC in the presence of Compound 21: 0.5
[3]; in words
  effect on activity of tigecycline against strains expressing efflux pumps: increases activity to tigecycline
[3]; tigecycline checkerboard
  concentration required to completely inhibit the efflux pumps: 2.5 µg/mL
[4]; Compound 21 0.625 μg/ml
  Tigecycline MIC in the presence of Compound 21: 4
[4]; Compound 21 1.25 μg/ml
  Tigecycline MIC in the presence of Compound 21: 2
[4]; Compound 21 5 μg/ml
  Tigecycline MIC in the presence of Compound 21: 0.5
[4]; Compound 21 10 μg/ml
  Tigecycline MIC in the presence of Compound 21: 0.5
[4]; Compound 21 20 μg/ml
  Tigecycline MIC in the presence of Compound 21: 0.5
[4]; Compound 21 40 μg/ml
  Tigecycline MIC in the presence of Compound 21: 0.5
[4]; Compound 21 […]
  Tigecycline MIC in the presence of Compound 21: 0.5
[5]; compound 21 at […]
  reduction of tigecycline MIC50 and MIC90 of the population: 8 fold
[5]; individual strains tested
  strains that responded to compound 21: 98%
[5]; [6]
  MIC50, Tigecycline + EPI: 0.25 µg/mL
  MIC90, Tigecycline + EPI: 1 µg/mL

Source: US7879795B2, “Enhancement of tigecycline potency using efflux pump inhibitors” (Mpex Pharmaceuticals, Inc., priority 2004, dated 2011)
